Measurements from patent publication US6737058B2, “Methods for inhibiting endothelial cell and fibrinogen mediated inflammation using fibrinogen specific antibodies” (The Scripps Research Institute, priority 1992, dated 2004).

System: TNF or LPS-stimulated HUVEC
Experiment: 125I-labelled fibrinogen binding to TNF- or LPS-stimulated HUVEC
Design: species or system human
Conditions: TNF 5 ng/ml or LPS 1.0 μg/ml, 4 hours at 37° C.
Protocol: To determine the effect that known stimulators of HUVEC have on the binding characteristics of fibrinogen to HUVEC, dose-response experiments were performed as described in Example 3A2) on untreated HUVEC and TNF or lipopolysaccharide (LPS, Genzyme))-stimulated HUVEC. TNF and LPS were separately admixed at the respective concentrations of 5 nanograms (ng)/ml and 1.0 μg/ml to monolayers of HUVEC and maintained at 37° C. for 4 hours prior to the admixture of the labelled fibrinogen ranging in concentration from 0.01 μM up to 0.36 μM.

Substance: fibrinogen: fibrinogen isolated from fresh plasma by cold ethanol fractionation, fibronectin-free
- labelled fibrinogen molecules bound per cell in comparison to unstimulated cells: doubled
